Structures can show the parent of a compound that is named as a salt.
What follows are compounds tested against T1, human GPR52 (Homo sapiens, UniProt Q9Y2T5) (assay: Increase of intracellular cAMP concentration in human GPR52-expressing CHO cell (AlphaScreen cAMP assay)). Details: 0.5 h; test compound 10 µm, 37°C, 30 min, human GPR52-expressing CHO(dhfr-) cells; 100% = cAMP with 1 µM N-(2-hydroxyethyl)-3-[2-[3-(trifluoromethyl)benzyl]-1-benzofuran-4-yl]benzamide, 0% = DMSO; read-out: GPR52 agonist activity (%).
T1 construct: expressed in transfected cells; host or cells: CHO(dhfr-) cells
T1 sequence (Q9Y2T5 whole entry): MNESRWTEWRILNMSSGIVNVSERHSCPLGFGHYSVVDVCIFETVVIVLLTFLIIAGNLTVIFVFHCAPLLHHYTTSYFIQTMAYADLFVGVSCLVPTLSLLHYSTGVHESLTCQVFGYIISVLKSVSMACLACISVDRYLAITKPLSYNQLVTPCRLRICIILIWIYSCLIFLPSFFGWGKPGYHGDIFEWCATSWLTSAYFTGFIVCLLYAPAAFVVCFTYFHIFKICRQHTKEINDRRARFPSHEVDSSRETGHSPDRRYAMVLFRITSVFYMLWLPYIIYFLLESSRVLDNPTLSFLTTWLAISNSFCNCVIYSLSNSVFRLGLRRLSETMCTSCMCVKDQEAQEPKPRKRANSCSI
Assay type: cell-based
Procedure: Increase of intracellular cAMP concentration in human GPR52-expressing CHO cell
Using OptiPlate-384 (PerkinElmer Inc.), 1×10^4 human GPR52-expressing CHO(dhfr-) cells were incubated together with a test compound ([…]) in an assay buffer (30 µL, HBSS (containing Ca^2+ and Mg^2+), 0.5% BSA, 100 µM IBMX, 100 µM Ro20-1724, 5 mM HEPES (pH 7.55)) at 37°C for 30 min. Thereafter, according to the protocol of AlphaScreen cAMP Assay Kit (PerkinElmer Inc.), the intracellular cAMP concentration was measured by EnVision (PerkinElmer Inc.). The GPR52 agonist activity was calculated, assuming the intracellular cAMP concentration in the presence of 1 µM N-(2-hydroxyethyl)-3-[2-[3-(trifluoromethyl)benzyl]-1-benzofuran-4-yl]benzamide to be 100% and assuming the intracellular cAMP concentration when DMSO was added instead of the test compound to be 0%.

| Structure (SMILES) | activation at 10 µM [%] |
| --- | --- |
| COCCNC(=O)[C@@H]1C[C@H]1C(=O)Nc1sc(Cc2cc(F)cc(Cl)c2)nc1C (relative stereo) [Example 189, trans-N-[2-(3-chloro-5-fluorobenzyl)-4-methyl-1,3-thiazol-5-yl]-N'-(2-methoxyethyl)cyclopropane-1,2-dicarboxamide] | 78 |
| COC(=O)[C@@H]1C[C@@H]1C(=O)Nc1sc(Cc2cc(F)cc(Cl)c2)nc1C (relative stereo) [Example 190, methyl cis-2-{[2-(3-chloro-5-fluorobenzyl)-4-methyl-1,3-thiazol-5-yl]carbamoyl}cyclopropanecarboxylate] | 82 |
| Cn1nccc1C(=O)Nc1cnc(Cc2cccc(C(F)(F)F)c2)s1 [Example 1, 1-methyl-N-{2-[3-(trifluoromethyl)benzyl]-1,3-thiazol-5-yl}-1H-pyrazole-5-carboxamide] | 92 |
| CCN1CC(C(=O)Nc2sc(Cc3cccc(C(F)(F)F)c3)nc2C)CC1=O (stereo not shown) [Example 4, 1-ethyl-N-(4-methyl-2-[3-(trifluoromethyl)benzyl]-1,3-thiazol-5-yl}-5-oxopyrrolidine-3-carboxamide] | 72 |
| Cn1nccc1C(=O)Nc1sc(Cc2cccc(C(F)(F)F)c2)nc1CO [Example 6, N-{4-(hydroxymethyl)-2-[3-(trifluoromethyl)benzyl]-1,3-thiazol-5-yl}-1-methyl-1H-pyrazole-5-carboxamide] | 83 |
| COCc1nc(Cc2cccc(C(F)(F)F)c2)sc1NC(=O)c1ccnn1C [Example 8, N-{4-(methoxymethyl)-2-[3-(trifluoromethyl)benzyl]-1,3-thiazol-5-yl}-1-methyl-1H-pyrazole-5-carboxamide] | 78 |
| CCc1nc(Cc2cccc(C(F)(F)F)c2)sc1NC(=O)c1ccnn1C [Example 11, N-{4-ethyl-2-[3-(trifluoromethyl)benzyl]-1,3-thiazol-5-yl}-1-methyl-1H-pyrazole-5-carboxamide] | 92 |
| C=Cc1nc(Cc2cccc(C(F)(F)F)c2)sc1NC(=O)c1ccnn1C [Example 12, N-{4-ethenyl-2-[3-(trifluorornethyl)benzyl]-1,3-thiazol-5-yl}-1-methyl-1H-pyrazole-5-carboxamide] | 75 |
| CCCc1nc(Cc2cccc(C(F)(F)F)c2)sc1NC(=O)c1ccnn1C [Example 14, 1-methyl-N-{4-propyl-2-[3-(trifluoromethyl)benzyl]-1,3-thiazol-5-yl}-1H-pyrazole-5-carboxamide] | 80 |
| CCCCc1nc(Cc2cccc(C(F)(F)F)c2)sc1NC(=O)c1ccnn1C [Example 16, N-{4-butyl-2-[3-(trifluoromethyl)benzyl]-1,3-thiazol-5-yl}-1-methyl-1H-pyrazole-5-carboxamide] | 72 |
| Cn1nccc1C(=O)Nc1sc(Cc2cccc(C(F)(F)F)c2)nc1C(F)(F)F [Example 17, 1-methyl-N-{4-(trifluoromethyl)-2-[3-(trifluoromethyl)benzyl]-1,3-thiazol-5-yl}-1H-pyrazole-5-carboxamide] | 94 |
| CC(=O)N1CCC(C(=O)Nc2sc(Cc3cccc(C(F)(F)F)c3)nc2C)C1 (stereo not shown) [Example 21, 1-acetyl-N-{4-methyl-2-[3-(trifluoromethyl)benzyl]-1,3-thiazol-5-yl}pyrrolidine-3-carboxamide] | 69 |
| Cc1nc(Cc2cccc(C(F)(F)F)c2)sc1NC(=O)C1CCCNC1 (stereo not shown) [Example 29, N-{4-methyl-2-[3-(trifluoromethyl)benzyl]-1,3-thiazol-5-yl}piperidine-3-carboxamide hydrochloride] | 71 |
| Cc1nc(Cc2cccc(C(F)(F)F)c2)sc1NC(=O)C1CCNCC1 [Example 33, N-{4-methyl-2-[3-(trifluoromethyl)benzyl]-1,3-thiazol-5-yl}piperidine-4-carboxamide hydrochloride] | 70 |
| Cc1nc(Cc2cccc(C(F)(F)F)c2)sc1NC(=O)C1(C#N)CC1 [Example 39, 1-cyano-N-{4-methyl-2-[3-(trifluoromethyl)benzyl]-1,3-thiazol-5-yl}cyclopropanecarboxamide] | 79 |
| Cc1nc(Cc2cccc(C(F)(F)F)c2)sc1NC(=O)c1ccoc1C [Example 40, 2-methyl-N-{4-methyl-2-[3-(trifluoromethyl)-benzyl]-1,3-thiazol-5-yl}furan-3-carboxamide] | 80 |
| Cc1nc(Cc2cccc(C(F)(F)F)c2)sc1NC(=O)c1nccn1C [Example 41, 1-methyl-N-{4-methyl-2-[3-(trifluoromethyl)-benzyl]-1,3-thiazol-5-yl}-1H-imidazole-2-carboxamide] | 72 |
| Cc1nc(Cc2cccc(C(F)(F)F)c2)sc1NC(=O)c1cncn1C [Example 43, 1-methyl-N-{4-methyl-2-[3-(trifluoromethyl)-benzyl]-1,3-thiazol-5-yl}-1H-imidazole-5-carboxamide] | 73 |
| Cc1nc(Cc2cccc(C(F)(F)F)c2)sc1NC(=O)c1c(C)nn(C)c1C [Example 47, 1,3,5-trimethyl-N-{4-methyl-2-[3-(trifluoromethyl)-benzyl]-1,3-thiazol-5-yl}-1H-pyrazole-4-carboxamide] | 82 |
| Cc1nc(Cc2cccc(C(F)(F)F)c2)sc1NC(=O)c1c(C)nn(C)c1Cl [Example 51, 5-chloro-1,3-dimethyl-N-{4-methyl-2-[3-(trifluoromethyl)-benzyl]-1,3-thiazol-5-yl}-1H-pyrazole-4-carboxamide] | 77 |
| CSc1ncccc1C(=O)Nc1sc(Cc2cccc(C(F)(F)F)c2)nc1C [Example 76, 2-(methylsulfanyl)-N-{4-methyl-2-[3-(trifluoromethyl)-benzyl]-1,3-thiazol-5-yl}pyridine-3-carboxamide] | 86 |
| Cc1nc(Cc2cccc(C(F)(F)F)c2)sc1NC(=O)c1ccnn1C [Example 110, 1-methyl-N-{4-methyl-2-[3-(trifluoromethyl)-benzyl]-1,3-thiazol-5-yl}-1H-pyrazole-5-carboxamide] | 82 |
| Cc1nc(Cc2cccc(C(F)(F)F)c2)sc1NC(=O)c1ccc(CCN2CCCC2)nc1 [Example 122, N-{4-methyl-2-[3-(trifluoromethyl)-benzyl]-1,3-thiazol-5-yl}-6-(2-pyrrolidin-1-ylethyl)pyridine-3-carboxamide] | 96 |
| Cc1cc(C(=O)Nc2sc(Cc3cc(F)cc(Cl)c3)nc2C)n(C)n1 [Example 147, N-[2-(3-chloro-5-fluorobenzyl)-4-methyl-1,3-thiazol-5-yl]-1,3-dimethyl-1H-pyrazole-5-carboxamide] | 78 |
| Cc1nc(Cc2cc(F)cc(Cl)c2)sc1NC(=O)c1cc(Cl)nn1C [Example 149, 3-chloro-N-[2-(3-chloro-5-fluorobenzyl)-4-methyl-1,3-thiazol-5-yl]-1-methyl-1H-pyrazole-5-carboxamide] | 75 |
| Cc1nc(Cc2cc(F)cc(Cl)c2)sc1NC(=O)c1ccnn1C(F)F [Example 150, N-[2-(3-chloro-5-fluorobenzyl)-4-methyl-1,3-thiazol-5-yl]-1-(difluoromethyl)-1H-pyrazole-5-carboxamide] | 69 |
| Cc1nc(Cc2cc(F)cc(Cl)c2)sc1NC(=O)c1ccnn1C(C)C [Example 151, N-[2-(3-chloro-5-fluorobenzyl)-4-methyl-1,3-thiazol-5-yl]-1-(1-methylethyl)-1H-pyrazole-5-carboxamide] | 69 |
| Cc1nc(Cc2ccc(F)c(Cl)c2)sc1NC(=O)c1ccnn1C [Example 156, N-[2-(3-chloro-4-fluorobenzyl)-4-methyl-1,3-thiazol-5-yl]-1-methyl-1H-pyrazole-5-carboxamide] | 76 |
| Cc1nc(Cc2cccc(Cl)c2)sc1NC(=O)c1ccnn1C [Example 157, N-[2-(3-chlorobenzyl)-4-methyl-1,3-thiazol-5-yl]-1-methyl-1H-pyrazole-5-carboxamide] | 77 |

Same assay, conditions: test compound 10 µm, 37°C, 30 min, human GPR52-expressing CHO(dhfr-) cells; 100% = cAMP with 1 µM N-(2-hydroxyethyl)-3-[2-[3-(trifluoromethyl)benzyl]-1-benzofuran-4-yl]benzamide, 0% = DMSO

| Structure (SMILES) | GPR52 agonist activity (%) |
| --- | --- |
| Cc1nc(Cc2cccc(C(F)(F)F)c2)sc1NC(=O)C1CCNC1 (stereo not shown) [Example 20, N-{4-methyl-2-[3-(trifluoromethyl)benzyl]-1,3-thiazol-5-yl}pyrrolidine-3-carboxamide hydrochloride] | 74 |
| CCNC(=O)N1CCC(C(=O)Nc2sc(Cc3cccc(C(F)(F)F)c3)nc2C)C1 (stereo not shown) [Example 23, N1-ethyl-N3-{4-methyl-2-[3-(trifluoromethyl)benzyl]-1,3-thiazol-5-yl}pyrrolidine-1,3-dicarboxamide] | 80 |
| Cc1nocc1C(=O)Nc1sc(Cc2cccc(C(F)(F)F)c2)nc1C [Example 24, 3-methyl-N-{4-methyl-2-[3-(trifluoromethyl)benzyl]-1,3-thiazol-5-yl}isoxazole-4-carboxamide] | 93 |
| Cc1cc(C(=O)Nc2sc(Cc3cccc(C(F)(F)F)c3)nc2C)c(C)o1 [Example 26, 2,5-dimethyl-N-{4-methyl-2-[3-(trifluoromethyl)benzyl]-1,3-thiazol-5-yl}furan-3-carboxamide] | 78 |
| CCS(=O)(=O)N1CCC(C(=O)Nc2sc(Cc3cccc(C(F)(F)F)c3)nc2C)C1 (stereo not shown) [Example 30, 1-(ethylsulfonyl)-N-(4-methyl-2-[3-(trifluoromethyl)benzyl]-1,3-thiazol-5-yl}pyrrolidine-3-carboxamide] | 81 |

Source: patent EP2530078A1, “THIAZOLE DERIVATIVE” (Takeda Pharmaceutical Company Limited, priority 2010, dated 2011)
